{
  "source": "patent US9272036B2",
  "about": "“Carbon dioxide, saline and additional active nasal delivery methods and treatments” (CLOVER HILL HEALTHCARE, INC., priority 2012, dated 2016)",
  "origin": "cited, not measured here",
  "system": "subjects with SAR",
  "data": [
    {"smiles": "O=C=O", "note": "[CO(2), carbon dioxide]", "values": [
      {"measurement": "histamine levels in ipsilateral nasal secretions", "setting": "after pretreatment with CO(2), increased significantly with sham treatment", "result": "did not increase"},
      {"measurement": "sensation reported by subjects during exposure", "setting": "during 20-second intranasal exposure", "result": "transient burning sensation"},
      {"measurement": "ipsilateral secretion weights", "setting": "nasal allergen challenge 30 minutes after 20-second CO(2) exposure, compared with no treatment", "result": "numerically reduced"},
      {"measurement": "bilateral runny nose symptoms", "setting": "nasal allergen challenge 30 minutes after 20-second CO(2) exposure, compared with no treatment, p=0.01", "result": "significant reduction"},
      {"measurement": "contralateral secretion weights (reflex secretory response, primary outcome)", "setting": "nasal allergen challenge 30 minutes after 20-second CO(2) exposure, compared with no treatment, p=0.04", "result": "significant reduction"},
      {"measurement": "sneezes", "setting": "nasal allergen challenge (grass or ragweed) 30 minutes after 20-second CO(2) exposure, compared with no treatment, p=0.05", "result": "significant reduction"},
      {"measurement": "acute response to allergen challenge (overall)", "setting": "treatment with nasal CO(2)", "result": "partial reduction"}
    ]}
  ]
}
